These results are taken from patent US8673917B2, “2-heteroaryl-pyrrolo [3,4-C]pyrrole derivatives, and use thereof as SCD inhibitors” (Sanofi, priority 2008, dated 2014).

The structures appear in SMILES notation. Where a name gives a salt, the structure may show the parent alone.

The term IC50 denotes the concentration that inhibits the measured activity by half. A word on the inhibition: it is the change of the read-out against control, counted positive when it falls. Read a high inhibition as a strong effect.

The assay concerns the target T1, SCD1 (Rattus norvegicus, UniProt P07308).
T1 construct: from tissue; host or cells: liver microsomes of male Wistar rats fed a carbohydrate-rich, low-fat diet
T1 sequence (P07308 1-358): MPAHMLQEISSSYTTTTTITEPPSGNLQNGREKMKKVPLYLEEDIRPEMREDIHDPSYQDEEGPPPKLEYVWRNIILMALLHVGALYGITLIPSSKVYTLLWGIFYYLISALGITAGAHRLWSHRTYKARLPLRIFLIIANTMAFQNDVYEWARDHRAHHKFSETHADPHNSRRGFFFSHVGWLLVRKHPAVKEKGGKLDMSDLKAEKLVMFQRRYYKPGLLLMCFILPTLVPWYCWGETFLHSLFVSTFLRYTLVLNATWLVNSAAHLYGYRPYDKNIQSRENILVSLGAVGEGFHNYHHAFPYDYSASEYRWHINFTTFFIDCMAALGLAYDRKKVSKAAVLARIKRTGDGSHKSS
Nature of the assay: Stearoyl-CoA desaturase (SCD1) activity assay with rat liver microsomes, TLC with 1-14C-labeled stearic acid. Particulars: for IC50: SCD1 activity; for inhibition at 10 µM: inhibition of SCD1 activity at 10 μM/l. Format: biochemical. The method, then:
The efficacy of the inventive compounds of the formula I was tested with microsomal enzymes in the following assay system:
The livers of male Wistar rats which (to induce the expression of SCD1) had been fed with a carbohydrate-rich, low-fat diet were homogenized with a Potter tissue homogenizer and differential centrifugation in a buffer which contained 250 mM/l of sucrose and 5 mM/l of HEPES (pH 7.0). The resuspended microsome fraction was stored at −80° C. The stearoyl-CoA desaturase activity was determined in a thin-film chromatography assay with 1-^14C-labeled stearic acid. In short, the particular inventive compounds (in DMSO in a final concentration of 1% [v/v]) were incubated with 15 μg of the rat liver microsomes in 200 μl of assay buffer (6 mM/l of MgCl2, 250 mM/l of sucrose, 150 mM/l of KCl, 40 mM/l of NaF, 100 mM/l of Na2HPO4 (pH7.4), 1.3 mM/l of ATP, 1.5 mM/l of reduced glutathione, 60 uM/l of CoA, 0.33 mM/l of nicotinamide and 0.94 mM/l of NADH) at room temperature for 10 min. 0.5 μCi [1-^14C]-stearic acid (55 mCi/mmol) was added, and the mixture was incubated at 37° C. for 1 h. The radioactively labeled fatty acids were subsequently hydrolyzed at 65° C. with 2.5 M KOH/MeOH:H2O (4:1) for 4 h, protonated with 280 μl of formic acid and extracted with 500 μl of hexane. The TLC plates were immersed into 10% AgNO3 and heat-activated before use. 150 μl of the hexane phase were applied to the plates, and the TLC plates were developed in buffer (chloroform:methanol:acetic acid:water [90:8:1:0.8]) and dried. The plates were read off in a phosphoimager to quantify the SCD1 activity.
The person skilled in the art can modify this assay in various aspects to determine the inhibition of the stearoyl-CoA desaturase activity.

For the compound `O=C(c1ccccc1C(F)(F)F)N1CC2=C(C1)CN(c1ccc(OCc3ccccc3)cn1)C2` [Example 1, [5-(5-Benzyloxypyridin-2-yl)-3,4,5,6-tetrahydro-1H-pyrrolo[3,4-c]pyrrol-2-yl](2-trifluoromethylphenyl)methanone], inhibition was half-maximal at 133 nM (IC50) and at 10 µM the inhibition was 80%.

As to `O=C(c1ccccc1C(F)(F)F)N1CC2=C(C1)CN(c1ccc(OCc3nccs3)nn1)C2` [Example 2, {5-[6-(Thiazol-2-ylmethoxy)pyridazin-3-yl]-3,4,5,6-tetrahydro-1H-pyrrolo[3,4-c]pyrrol-2-yl}-(2-trifluoromethylphenyl)methanone], the midpoint of inhibition, the IC50, lay at 795 nM and testing at 10 µM gave an inhibition of 86%.

For the compound `O=C(c1ccccc1C(F)(F)F)N1CC2=C(C1)CN(c1ccc(OCc3ccccc3)nn1)C2` [Example 3, [5-(6-Benzyloxpyridazin-3-yl)-3,4,5,6-tetrahydro-1H-pyrrolo[3,4-c]pyrrol-2-yl](2-trifluoromethylphenyl)methanone], the IC50 came to 7.18 nM and the inhibition at 10 µM came out at 100%. The compound `O=C(c1ccccc1C(F)(F)F)N1CC2=C(C1)CN(c1ccc(OCCc3ccccc3)nn1)C2` [Example 4, [5-(6-Phenethyloxypyridazin-3-yl)-3,4,5,6-tetrahydro-1H-pyrrolo[3,4-c]pyrrol-2-yl](2-trifluoromethylphenyl)methanone trifluoroacetate] showed an IC50 of 43.4 nM.

`O=C(c1ccccc1C(F)(F)F)N1CC2=C(C1)CN(c1ccc(OCCC3CC3)nn1)C2` [Example 5, {5-[6-(2-Cyclopropylethoxy)pyridazin-3-yl]-3,4,5,6-tetrahydro-1H-pyrrolo[3,4-c]pyrrol-2-yl}-(2-trifluoromethylphenyl)methanone trifluoroacetate] yielded an IC50 of 213 nM. `O=C(c1ccccc1C(F)(F)F)N1CC2=C(C1)CN(c1ccc(OCc3cscn3)nn1)C2` [Example 6, {5-[6-(Thiazol-4-ylmethoxy)pyridazin-3-yl]-3,4,5,6-tetrahydro-1H-pyrrolo[3,4-c]pyrrol-2-yl}-(2-trifluoromethylphenyl)methanone trifluoroacetate] had an IC50 of 483 nM. The same measure, in the same setting: next, `O=C(c1ccccc1C(F)(F)F)N1CC2=C(C1)CN(c1ccc(OCC3CCOCC3)nn1)C2` [Example 7, {5-[6-(Tetrahydropyran-4-ylmethoxy)pyridazin-3-yl]-3,4,5,6-tetrahydro-1H-pyrrolo[3,4-c]pyrrol-2-yl}-(2-trifluoromethylphenyl)methanone trifluoroacetate]: 7120 nM.

As to `O=C(c1ccccc1C(F)(F)F)N1CC2=C(C1)CN(c1ccc(OCc3ccccc3)nn1)C2` [Example 8, 5-(6-Benzyloxypyridazin-3-yl)-3,4,5,6-tetrahydro-1H-pyrrolo[3,4-c]pyrrol-2-yl](2-trifluoromethylphenyl)methanone hydrochloride], the IC50 amounted to 8.48 nM.

Turning to `O=C(c1ccccc1C(F)(F)F)N1CC2=C(C1)CN(c1ccc(OCc3ccccn3)nn1)C2` [Example 9, 5-[6-(Pyridin-2-ylmethoxy)pyridazin-3-yl]-3,4,5,6-tetrahydro-1H-pyrrolo[3,4-c]pyrrol-2-yl}-(2-trifluoromethylphenyl)methanone hydrochloride], the IC50 stood at 1340 nM.
